Assay results from patent US10940139B2, “Compounds that interact with the Ras superfamily for the treatment of cancers, inflammatory diseases, rasopathies, and fibrotic disease” (Shy Therapeutics LLC, priority 2017, dated 2021).

Assays:
Experiment in all cases: Ras GTP binding domain inhibition assay (labeled GTP)
[1] = target: KRas G12D/Q61H double mutant (Homo sapiens (Human), UniProt P01116, G12D/Q61H); conditions: for inhibition at 20 µM: 20 μM compound, read-out: % Inhibition at 20 μM KRas G12D Q61H; for IC50: serial dilution, read-out: KRas G12D Q61H (classes E-H, IC50)
How it was run: (§1)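 Ni-plate capture of His-KRas (3-10 μg/ml, o/n, 4° C); Tris pH 7.5/MgCl2/DTT buffer, 1% DMSO. Cpd 20 μM or titration, 3 h RT. Cy3/Cy5-GTP 45 min RT, wash, fluorescence of bound GTP.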

KRas wild type = KRas wild type (Homo sapiens (Human), UniProt P01116); conditions: 20 μM compound; read-out: % Inhibition at 20 μM KRas wild type
How it was run: as §1

KRas Q61H mutant = KRas Q61H mutant (Homo sapiens (Human), UniProt P01116, Q61H); conditions: 20 μM compound; read-out: % Inhibition at 20 μM KRas Q61H
How it was run: as §1

[2] = target: KRas G12C/Q61H double mutant (Homo sapiens (Human), UniProt P01116, G12C/Q61H); conditions: 20 μM compound; read-out: % Inhibition at 20 μM KRas G12C Q61H
How it was run: as §1

KRas G12C mutant = KRas G12C mutant (Homo sapiens (Human), UniProt P01116, G12C); conditions: 20 μM compound; read-out: % Inhibition at 20 μM KRas G12C
How it was run: as §1

KRas G12D mutant protein = KRas G12D mutant protein (Homo sapiens (Human), UniProt P01116, G12D); conditions: 20 μM compound; read-out: % Inhibition at 20 μM KRas G12D
KRas G12D mutant protein, sequence (P01116-2 other isoform, or with tags, fused parts or gaps G12D): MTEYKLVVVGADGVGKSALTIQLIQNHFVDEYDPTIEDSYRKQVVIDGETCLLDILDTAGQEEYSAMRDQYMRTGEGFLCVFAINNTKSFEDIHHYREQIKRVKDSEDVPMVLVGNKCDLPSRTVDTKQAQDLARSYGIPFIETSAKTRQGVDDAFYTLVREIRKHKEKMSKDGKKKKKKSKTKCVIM

KRas G12C/Q61H double mutant, sequence (P01116-2 other isoform, or with tags, fused parts or gaps G12C/Q61H): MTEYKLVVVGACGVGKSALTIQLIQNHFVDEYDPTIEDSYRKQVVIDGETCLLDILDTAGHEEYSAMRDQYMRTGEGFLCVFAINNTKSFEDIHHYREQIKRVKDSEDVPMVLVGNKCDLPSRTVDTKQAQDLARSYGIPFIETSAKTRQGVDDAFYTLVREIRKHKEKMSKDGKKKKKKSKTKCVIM
KRas wild type, sequence (P01116-2 other isoform, or with tags, fused parts or gaps): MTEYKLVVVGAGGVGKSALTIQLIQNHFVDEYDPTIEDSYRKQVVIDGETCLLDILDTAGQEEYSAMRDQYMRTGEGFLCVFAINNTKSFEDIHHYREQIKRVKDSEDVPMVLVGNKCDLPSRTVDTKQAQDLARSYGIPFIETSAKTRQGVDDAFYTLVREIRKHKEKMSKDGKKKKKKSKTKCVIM
KRas G12D/Q61H double mutant, sequence (P01116-2 other isoform, or with tags, fused parts or gaps G12D/Q61H): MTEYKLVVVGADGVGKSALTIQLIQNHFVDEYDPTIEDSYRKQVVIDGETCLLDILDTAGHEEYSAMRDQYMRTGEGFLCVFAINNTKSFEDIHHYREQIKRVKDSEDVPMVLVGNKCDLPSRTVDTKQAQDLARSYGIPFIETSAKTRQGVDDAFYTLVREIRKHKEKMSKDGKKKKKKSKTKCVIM
KRas Q61H mutant, sequence (P01116-2 other isoform, or with tags, fused parts or gaps Q61H): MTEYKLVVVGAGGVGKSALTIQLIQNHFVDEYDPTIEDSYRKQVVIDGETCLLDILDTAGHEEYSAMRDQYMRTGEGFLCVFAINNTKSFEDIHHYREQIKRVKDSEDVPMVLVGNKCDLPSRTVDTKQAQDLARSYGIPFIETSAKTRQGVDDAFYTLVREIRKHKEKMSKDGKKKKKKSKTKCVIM
KRas G12C mutant, sequence (P01116-2 other isoform, or with tags, fused parts or gaps G12C): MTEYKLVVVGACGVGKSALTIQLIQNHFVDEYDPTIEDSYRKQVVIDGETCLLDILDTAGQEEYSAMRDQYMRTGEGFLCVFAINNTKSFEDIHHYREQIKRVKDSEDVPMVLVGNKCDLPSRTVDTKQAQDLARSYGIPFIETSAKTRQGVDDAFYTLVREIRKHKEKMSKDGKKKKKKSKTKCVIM

Row | SMILES | inhibition at 20 µM [1] | inhibition at 20 µM (KRas wild type) | inhibition at 20 µM (KRas Q61H mutant) | inhibition at 20 µM [2] | inhibition at 20 µM (KRas G12C mutant) | inhibition at 20 µM (KRas G12D mutant protein) | IC50 [1]
1 | Oc1nc(-c2ccccn2)nc2sccc12 [drawing 2704] | 51 to 75% | 25 to 50% | 51 to 75% | 51 to 75% | 25 to 50% | 25 to 50% | 11 to 30 µM
2 | COc1ccnc(-c2nc(O)c3ccsc3n2)c1 [drawing 2708] | 51 to 75% | 25 to 50% | 51 to 75% | 51 to 75% | 51 to 75% | 51 to 75% | 5 to 10 µM
3 | CC1CN(c2ccccc2)CCN1C(=O)c1csc2c(O)nc(-c3ccccn3)nc12 (centres unmarked) [drawing 2761] | 51 to 75% | 25 to 50% | 76 to 100% | 76 to 100% | 51 to 75% | 76 to 100% | 5 to 10 µM
4 | COc1cccc(CN2CCN(C(=O)c3csc4c(O)nc(-c5ccccn5)nc34)CC2)c1 [drawing 2763] | 25 to 50% | 25 to 50% | 76 to 100% | 76 to 100% | 25 to 50% | 76 to 100% | 
5 | O=C(c1csc2c(O)nc(-c3ccccn3)nc12)N1CCOC(c2ccccc2Cl)C1 (centres unmarked) [drawing 2769] | 51 to 75% | 51 to 75% | 76 to 100% | 76 to 100% | 25 to 50% | 25 to 50% | 5 to 10 µM
6 | COc1cccc(C2CN(C(=O)c3csc4c(O)nc(-c5ccccn5)nc34)CCN2)c1 (centres unmarked) [drawing 2773] | 25 to 50% | 25 to 50% | 76 to 100% | 51 to 75% | 25 to 50% | 51 to 75% | 11 to 30 µM
7 | N#Cc1ccc(COCC(=O)Nc2nc(-c3ccccn3)nc3sccc23)cc1 [drawing 2799] | 25 to 50% | 25 to 50% | 76 to 100% | 76 to 100% | 25 to 50% | 76 to 100% | 11 to 30 µM
8 | COc1ccnc(-c2nc(O)c3c(Cl)csc3n2)c1 [drawing 2800] | 51 to 75% | 51 to 75% | 76 to 100% | 76 to 100% | 25 to 50% | 51 to 75% | 11 to 30 µM
9 | O=C(c1csc2c(O)nc(-c3ccccn3)nc12)N1CCNC(c2ccc(O)cc2)C1 (centres unmarked) [drawing 2808] | 76 to 100% | 76 to 100% | 76 to 100% | 76 to 100% | 51 to 75% | 51 to 75% | 5 to 10 µM
10 | Cc1cnc(-c2ccccn2)nc1NC(=O)C1CCCc2cc(C#N)ccc21 (centres unmarked) [drawing 2827] | 51 to 75% | 51 to 75% | 51 to 75% | 51 to 75% | 25 to 50% | 25 to 50% | 
11 | CN(C)Cc1ccc(-c2csc3c(O)nc(-c4ccccn4)nc23)cc1F [drawing 2845] | 76 to 100% | 51 to 75% | 76 to 100% | 76 to 100% | 25 to 50% | 76 to 100% | 
12 | COCc1ccc(-c2csc3c(O)nc(-c4ccccn4)nc23)cc1F [drawing 2846] | 51 to 75% | 25 to 50% | 51 to 75% | 51 to 75% | 51 to 75% | 51 to 75% | 
13 | Oc1nc(-c2ccccn2)nc2sc3c(c12)CCNC3 [drawing 2851] | 51 to 75% | 51 to 75% | 51 to 75% | 51 to 75% | 25 to 50% | 76 to 100% | 
14 | Oc1nc(-c2ccccn2)nc2sc3c(c12)CCCNC3 [drawing 2852] | 25 to 50% | 25 to 50% | 25 to 50% | 25 to 50% | 51 to 75% | 51 to 75% | 
15 | O=C(COCc1ccnc(O)c1)Nc1nc(-c2ccccn2)nc2sccc12 [drawing 2857] | 51 to 75% | 25 to 50% | 51 to 75% | 51 to 75% | 25 to 50% | 25 to 50% | 

Continued, in another order:

Row | inhibition at 20 µM [1] | inhibition at 20 µM (KRas wild type) | inhibition at 20 µM (KRas Q61H mutant) | inhibition at 20 µM [2] | inhibition at 20 µM (KRas G12C mutant) | inhibition at 20 µM (KRas G12D mutant protein) | SMILES | IC50 [1]
16 | 51 to 75% | 25 to 50% | 51 to 75% | 51 to 75% | 51 to 75% | 51 to 75% | O=C(COCc1ccncc1)Nc1nc(-c2ccccn2)nc2sccc12 [drawing 2828] | 
17 | 51 to 75% | 51 to 75% | 76 to 100% | 76 to 100% | 51 to 75% | 51 to 75% | O=C(COCc1cccnc1)Nc1nc(-c2ccccn2)nc2sccc12 [drawing 2829] | 
18 | 25 to 50% | 1 to 25% | 51 to 75% | 25 to 50% | 25 to 50% | 1 to 25% | Nc1nc(-c2ccccn2)nc2ccsc12 [drawing 2834] | 
19 | 51 to 75% | 25 to 50% | 51 to 75% | 51 to 75% | 1 to 25% | 51 to 75% | Cc1cc2nc(-c3ccccn3)nc(N)c2s1 [drawing 2836] | 
20 | 76 to 100% | 25 to 50% | 76 to 100% | 76 to 100% | 25 to 50% | 51 to 75% | O=C(c1csc2c(O)nc(-c3ccccn3)nc12)N1CC2CC1CN2c1ccccc1 (centres unmarked) [drawing 2838] | 
21 | 51 to 75% | 51 to 75% | 51 to 75% | 51 to 75% | 51 to 75% | 51 to 75% | O=C(c1csc2c(O)nc(-c3ccccn3)nc12)N1CCC(c2ccncc2)C1 (centres unmarked) [drawing 2839] | 
22 | 76 to 100% | 51 to 75% | 76 to 100% | 76 to 100% | 51 to 75% | 76 to 100% | O=C(c1csc2c(O)nc(-c3ccccn3)nc12)N1CCC(c2cccc(O)c2)C1 (centres unmarked) [drawing 2840] | 
23 | 51 to 75% | 51 to 75% | 51 to 75% | 51 to 75% | 51 to 75% | 51 to 75% | O=C(c1cc2nc(-c3ccccn3)nc(O)c2s1)N1CCN(c2ccccc2)CC1 [drawing 2841] | 
24 | 25 to 50% | 1 to 25% | 25 to 50% | 1 to 25% | 25 to 50% | 25 to 50% | Oc1nc(-c2ccccn2)nc2c(-c3cc(Cl)cc(Cl)c3)csc12 [drawing 2848] | 
25 | 51 to 75% | 25 to 50% | 51 to 75% | 25 to 50% | 25 to 50% | 25 to 50% | Oc1nc(-c2ccccn2)nc2c(-c3cccc4c3OCO4)csc12 [drawing 2849] | 
26 | 51 to 75% | 51 to 75% | 51 to 75% | 51 to 75% | 51 to 75% | 51 to 75% | O=C(O)c1cc2nc(-c3ccccn3)nc(O)c2s1 [drawing 2850] | 
27 | 51 to 75% | 51 to 75% | 51 to 75% | 51 to 75% | 25 to 50% | 51 to 75% | Cc1cnc(-c2ccccn2)nc1NC(=O)Cc1ccc2cnccc2c1 [drawing 2856] | 
28 | 51 to 75% | 25 to 50% | 76 to 100% | 51 to 75% | 25 to 50% | 25 to 50% | O=C(c1csc2c(O)nc(-c3ccccn3)nc12)N1CCNC(c2cn[nH]c2)C1 (centres unmarked) [drawing 2858] | 
29 | 25 to 50% | 25 to 50% | 25 to 50% | 51 to 75% | 1 to 25% | 25 to 50% | Nc1nc(-c2ccccn2)nc2c(-c3ccccc3)csc12 [drawing 2859] | 
30 | 25 to 50% | 1 to 25% | 51 to 75% | 25 to 50% | 25 to 50% | 51 to 75% | Oc1nc(-c2ccccn2)nc2c(-c3cc(F)ccc3OC(F)F)csc12 [drawing 2860] | 
31 | 51 to 75% | 76 to 100% | 51 to 75% | 51 to 75% | 1 to 25% | 51 to 75% | Cn1nnc2ccc(-c3csc4c(O)nc(-c5ccccn5)nc34)cc21 [drawing 2861] | 
32 | 51 to 75% | 51 to 75% | 51 to 75% | 51 to 75% | 25 to 50% | 51 to 75% | O=S1(=O)CCN(Cc2cccc(-c3csc4c(O)nc(-c5ccccn5)nc34)c2)CC1 [drawing 2864] | 
